Where two headings read alike, the source gives them in different places.
How the values were obtained:
[1] = tested on: patients with type 2 diabetes mellitus recently hospitalized for worsening heart failure; conditions: for Difference (95% CI) in least-squares mean change in KCCQ-12 score to month 4 / Difference (95% CI) in least-squares mean change in estimated GFR: sotagliflozin minus placebo
[2] = tested on: patients with type 2 diabetes mellitus, chronic kidney disease, and additional cardiovascular risk; conditions: T2DM + CKD patients
[3] = T2DM + worsening heart failure, N = 608
[4] = T2DM + worsening heart failure, N = 608, listed as sotagliflozin
[5] = sotagliflozin vs. placebo, T2DM + worsening heart failure
[6] = sotagliflozin vs. placebo, T2DM + worsening heart failure, listed as sotagliflozin
[7] = sotagliflozin vs placebo, listed as sotagliflozin
[8] = sotagliflozin vs placebo, time-to-event analysis

SMILES: CCOc1ccc(Cc2cc([C@@H]3O[C@H](SC)[C@@H](O)[C@H](O)[C@H]3O)ccc2Cl)cc1 [Sotagliflozin, (2S,3R,4R,5S,6R)-2-(4-chloro-3-(4-ethoxybenzyl)phenyl)-6-(methylthio)tetrahydro-2H-pyran-3,4,5-triol]
- Deaths from any cause - rate [1, 3]: (13.5) events per 100 person-years of follow-up
- Deaths from any cause - total no. of events [1, 3]: 65
- Deaths from cardiovascular causes - rate [1, 3]: (10.6) events per 100 person-years of follow-up
- Deaths from cardiovascular causes - total no. of events [1, 3]: 51
- Deaths from cardiovascular causes, hospitalizations and urgent visits for heart failure, and events of heart failure during hospitalization - rate [1, 3]: (54.7) events per 100 person-years of follow-up
- Deaths from cardiovascular causes, hospitalizations and urgent visits for heart failure, and events of heart failure during hospitalization - total no. of events [1, 3]: 263
- Deaths from cardiovascular causes, hospitalizations for heart failure, nonfatal myocardial infarctions, and nonfatal strokes - rate [1, 3]: (51.4) events per 100 person-years of follow-up
- Deaths from cardiovascular causes, hospitalizations for heart failure, nonfatal myocardial infarctions, and nonfatal strokes - total no. of events [1, 3]: 247
- Hospitalizations and urgent visits for heart failure - rate [1, 3]: (40.4) events per 100 person-years of follow-up
- Hospitalizations and urgent visits for heart failure - total no. of events [1, 3]: 194
- Least-squares mean change in estimated GFR ([1]; T2DM + worsening heart failure, N = 608, during follow-up): −0.34 ml/min/1.73 m^2
- Deaths from any cause - rate [1, 4]: 13.5 events per 100 person-years of
- Deaths from cardiovascular causes - rate [1, 4]: 10.6 events per 100 person-years of
- Least-squares mean change in KCCQ-12 score to month 4 ([1]; T2DM + worsening heart failure, N = 608, scores range from 0 to 100): 17.7
- Primary end point: deaths from cardiovascular causes and hospitalizations and urgent visits for heart failure - total no. of events ([1]; T2DM patients with recent worsening heart failure, 200 mg once daily increased to 400 mg, N = 608, median follow-up 9.0 months): 245
- Primary end point: deaths from cardiovascular causes and hospitalizations and urgent visits for heart failure - rate ([1]; T2DM patients with recent worsening heart failure, N = 608): (51.0) events per 100 person-years of follow-up
- Primary end point: deaths from cardiovascular causes and hospitalizations and urgent visits for heart failure - rate ([1]; T2DM patients with recent worsening heart failure, N = 608, listed as sotagliflozin): 51.0 events per 100 person-years of
- Absolute difference in rate of primary end-point events ([1]; sotagliflozin group vs placebo group (51.0 vs 76.3), 95% CI, 5.1 to 45.6): 25.3 events per 100 patient-years
- Difference (95% CI) in least-squares mean change in KCCQ-12 score to month 4 [1]: 4.1 (1.3 to 7.0) points
- Difference (95% CI) in least-squares mean change in estimated GFR [1]: −0.16 (−1.30 to 0.98) ml/min/1.73 m^2
- Difference (95% CI) in least-squares mean change in KCCQ-12 score to month 4 ([1]; listed as sotagliflozin): 4.1 points
- Difference (95% CI) in least-squares mean change in estimated GFR ([1]; listed as sotagliflozin): −0.16 ml/min/1.73 m^2
- Total number of deaths from cardiovascular causes and hospitalizations for heart failure, excluding urgent visits for heart failure - hazard ratio ([1]; sotagliflozin vs. placebo, 95% CI, 0.53 to 0.88): 0.68
- Deaths from any cause - Hazard Ratio (95% CI) [1, 5]: 0.82 (0.59 to 1.14)
- Deaths from cardiovascular causes - Hazard Ratio (95% CI) [1, 5]: 0.84 (0.58 to 1.22)
- Deaths from cardiovascular causes, hospitalizations and urgent visits for heart failure, and events of heart failure during hospitalization - Hazard Ratio (95% CI) [1, 5]: 0.68 (0.54 to 0.86)
- Deaths from cardiovascular causes, hospitalizations for heart failure, nonfatal myocardial infarctions, and nonfatal strokes - Hazard Ratio (95% CI) [1, 5]: 0.72 (0.56 to 0.92)
- Hospitalizations and urgent visits for heart failure - Hazard Ratio (95% CI) [1, 5]: 0.64 (0.49 to 0.83)
- Primary end point: deaths from cardiovascular causes and hospitalizations and urgent visits for heart failure - Hazard Ratio (95% CI) [1, 5]: 0.67 (0.52 to 0.85)
- Deaths from any cause - Hazard Ratio (95% CI) [1, 6]: 0.82
- Deaths from cardiovascular causes - Hazard Ratio (95% CI) [1, 6]: 0.84
- Primary end point: deaths from cardiovascular causes and hospitalizations and urgent visits for heart failure - Hazard Ratio (95% CI) [1, 6]: 0.67
- Original primary end point: first occurrence of either death from cardiovascular causes or hospitalization for heart failure - hazard ratio ([1]; sotagliflozin vs. placebo, time-to-event analysis, 95% CI, 0.56 to 0.89): 0.71
- Subgroup analyses of the primary efficacy end point ([1]; subgroups by geographic region, LVEF (<50% or ≥50%), timing of first dose, sex, age, renal function (FIG. 4)): consistent treatment effect
- Primary end point: total no. of deaths from cardiovascular causes, hospitalizations for HF, and urgent visits for HF - event rate ([2]; 200 mg once daily increased to 400 mg, N = 5292, median follow-up 16 months): 5.6 no. of events/100 patient-yr
- Deaths from any cause - event rate ([2]; N = 5292): 3.5 no. of events/100 patient-yr
- Deaths from any cause - no. of events ([2]; N = 5292): 246
- Deaths from cardiovascular causes - event rate ([2]; N = 5292): 2.2 no. of events/100 patient-yr
- Deaths from cardiovascular causes - no. of events ([2]; N = 5292): 155
- First occurrence of a sustained decrease of ≥50% in the eGFR from baseline for ≥30 days, long-term dialysis, renal transplantation, or sustained eGFR of <15 ml/min/1.73 m2 for ≥30 days - event rate ([2]; N = 5292): 0.5 no. of events/100 patient-yr
- First occurrence of a sustained decrease of ≥50% in the eGFR from baseline for ≥30 days, long-term dialysis, renal transplantation, or sustained eGFR of <15 ml/min/1.73 m2 for ≥30 days - no. of events ([2]; N = 5292): 37
- Primary end point: total no. of deaths from cardiovascular causes, hospitalizations for HF, and urgent visits for HF - no. of events ([2]; N = 5292): 400
- Total no. of deaths from cardiovascular causes, hospitalizations for HF, nonfatal myocardial infarctions, and nonfatal strokes - event rate ([2]; N = 5292): 7.6 no. of events/100 patient-yr
- Total no. of deaths from cardiovascular causes, hospitalizations for HF, nonfatal myocardial infarctions, and nonfatal strokes - no. of events ([2]; N = 5292): 541
- Total no. of deaths from cardiovascular causes, hospitalizations for HF, urgent visits for HF, and events of HF during hospitalization - event rate ([2]; N = 5292): 6.4 no. of events/100 patient-yr
- Total no. of deaths from cardiovascular causes, hospitalizations for HF, urgent visits for HF, and events of HF during hospitalization - no. of events ([2]; N = 5292): 453
- Total no. of deaths from cardiovascular causes, nonfatal myocardial infarctions, and nonfatal strokes - event rate ([2]; N = 5292): 4.8 no. of events/100 patient-yr
- Total no. of deaths from cardiovascular causes, nonfatal myocardial infarctions, and nonfatal strokes - no. of events ([2]; N = 5292): 343
- Total no. of hospitalizations for HF and urgent visits for HF - event rate ([2]; N = 5292): 3.5 no. of events/100 patient-yr
- Total no. of hospitalizations for HF and urgent visits for HF - no. of events ([2]; N = 5292): 245
- Deaths from any cause - Hazard Ratio (95% CI) ([2]; sotagliflozin vs placebo): 0.99 (0.83-1.18)
- Deaths from cardiovascular causes - Hazard Ratio (95% CI) ([2]; sotagliflozin vs placebo): 0.90 (0.73-1.12)
- Primary end point: total no. of deaths from cardiovascular causes, hospitalizations for HF, and urgent visits for HF - Hazard Ratio (95% CI) ([2]; sotagliflozin vs placebo): 0.74 (0.63-0.88)
- Total no. of deaths from cardiovascular causes, hospitalizations for HF, nonfatal myocardial infarctions, and nonfatal strokes - Hazard Ratio (95% CI) ([2]; sotagliflozin vs placebo): 0.72 (0.63-0.83)
- Total no. of deaths from cardiovascular causes, hospitalizations for HF, urgent visits for HF, and events of HF during hospitalization - Hazard Ratio (95% CI) ([2]; sotagliflozin vs placebo): 0.76 (0.64-0.89)
- Total no. of deaths from cardiovascular causes, nonfatal myocardial infarctions, and nonfatal strokes - Hazard Ratio (95% CI) ([2]; sotagliflozin vs placebo): 0.77 (0.65-0.91)
- Total no. of hospitalizations for HF and urgent visits for HF - Hazard Ratio (95% CI) ([2]; sotagliflozin vs placebo): 0.67 (0.55-0.82)
- Deaths from cardiovascular causes - Hazard Ratio (95% CI) [2, 7]: 0.90
- Primary end point: total no. of deaths from cardiovascular causes, hospitalizations for HF, and urgent visits for HF - Hazard Ratio (95% CI) [2, 7]: 0.74
- Total no. of hospitalizations for HF and urgent visits for HF - Hazard Ratio (95% CI) [2, 7]: 0.67
- Original coprimary end point: first occurrence of death from cardiovascular causes or hospitalization for heart failure - hazard ratio [2, 8]: 0.77
- Original coprimary end point: first occurrence of death from cardiovascular causes, nonfatal myocardial infarction, or nonfatal stroke - hazard ratio [2, 8]: 0.84
